Data from patent US12122763B2, “Substituted piperidines for androgen receptor degradation” (UBIX THERAPEUTICS, INC., priority 2020, dated 2024).

Target: T1, Androgen Receptor (AR) protein (Homo sapiens, UniProt P10275, T878A)
T1 construct: endogenous in cells; host or cells: LNCaP
Experiment: Androgen Receptor (AR) protein degradation assay in LNCaP cells, western blotting
Type: cell-based
Conditions: 20 h; for inhibition at 0.01 µM: 0.01 μM compound; for inhibition at 0.1 µM: 0.1 μM compound; for inhibition at 1 µM: 1 μM compound
Procedure: Experimental Example 1: Androgen Receptor (AR) Protein Degradation Assay
After treating LNCaP cells with the synthesized Example compound, the amount of AR protein present in the cells was measured. The amount of AR protein was measured using western blotting detection method. The protocol of the experiment using LNCaP cells was as follows:
[Culture] LNCaP cells were resuspended in RPMI1640 MEDIUM (Hyclone, SH30027.01), 10% FBS (Hyclone, SV30207.02), and 1% Penicillin-streptomycin (Welgene, LS 202-02) media to be 3×10^5/mL. Then, 1 mL each was seeded in a 12-well plate. After that, they were cultured for 3 days.
[Compound treatment] 10 μl of 0.1, 1, 10, and 100 μM compound, which is the final compound treatment concentration and a 100× stock of 0.001, 0.01, 0.1, and 1 μM, was added in 1 ml media of each well, and 20 hours later, the cells were harvested.
[Cell Lysis] Cell pellets were suspended using 1% SDS lysis buffer (50 mM Tris, 1 mM EDTA, 1% SDS, pH 8.0, 0.5 mM PMSF, 1× Protease/Phosphatase inhibitor Cocktail (Cell Signaling Technology, 5872s)), and sonication (70% AMP, 5 cycles (30 sec ON/59 sec OFF)) was performed. Cell lysate was obtained after centrifugation at 4° C., 15000 g, for 20 minutes.
[Protein quantification] A BCA protein assay (SMART™ BCA Protein Assay Kit, iNtRON Biotechnology, 21071) was performed using a 96-well microplate. After adding 5 μl cell lysate and 5 μl 1% SDS lysis buffer to each well of the 96-well plate, 200 μl of BCA reagent (Reagent A:Reagent B=50:1) was additionally added. After incubation at 37° C. for 30 minutes, it was cooled at room temperature for 10 minutes. Then, absorbance was measured at a wavelength of 562 nm. The unknown protein concentration was measured using a BSA standard curve (0, 0.125, 0.25, 0.5, 1, 2 mg/ml). Western blotting samples were prepared by mixing cell lysate, 1% SDS lysis buffer, 4× Bolt™ LDS Sample buffer (Invitrogen, B0008), and 10× Bolt™ Sample Reducing Agent (Invitrogen, B0009) and boiling the mixture at 70° C. for 10 minutes.
[Electrophoresis] After loading 8 μg of protein sample into each well of Bolt™ 4 to 12%, Bis-Tris, 1.0 mm Mini Protein Gel, 17-well (Invitrogen, NW04127BOX), Bolt™ MES SDS Running Buffer (Invitrogen, B0002) was used for electrophoresis at 200V (constant V) for 50 minutes.
[Transfer] Using electrophoresis gel and Trans-Blot® Turbo™ Transfer Starter System (Bio-RAD, #17001918, Mini Nitrocellulose), transfer proceeded for 15 minutes under the condition of 1.3A (Constant A) and 25V (Limit V). To confirm protein transfer, 15 ml of Ponceau S solution (Sigma, P7170-1L) was used for staining for 1 minute, followed by washing to confirm the degree of transfer.
[Blocking] Membranes for AR detection were blocked for 45 minutes with 5% skim milk/0.2% TBST (Skim milk: BD, 232100/20× TBS: Biosesang, TR2008-100-00/10% Tween 20 Solution: Bio-RAD, #161-0781). Membranes for GAPDH and β-actin detection were blocked for 45 minutes with Odyssey blocking buffer: 0.1% TBST=1:1 (Odyssey blocking buffer: Li-COR Biosciences, 927-50000).
[Antibody and detection] The primary AR antibody (Androgen Receptor: CST, 5153s) was mixed with 5% skim milk/0.2% TBST at a ratio of 1:1000 and attached for 3 hours at room temperature. Primary β-actin antibody (GeneTex, 629630) was mixed with 5% BSA/0.2% TBST at a ratio of 1:2000 and attached for 3 hours at room temperature. Primary GAPDH antibody (GeneTex, 100118) was mixed with 5% BSA/0.2% TBST at a ratio of 1:2000 and attached for 3 hours at room temperature. After 3 hours, it was washed 3 times every 5 minutes using TBST (0.2% Tween 20). Anti-rabbit IgG, HRP-linked Antibody (CST, 7074s), secondary antibody for the AR antibody was mixed with 5% skim milk/0.2% TBST at a ratio of 1:5000 and attached for 45 minutes at room temperature. […]

T1 sequence (P10275 whole entry T878A): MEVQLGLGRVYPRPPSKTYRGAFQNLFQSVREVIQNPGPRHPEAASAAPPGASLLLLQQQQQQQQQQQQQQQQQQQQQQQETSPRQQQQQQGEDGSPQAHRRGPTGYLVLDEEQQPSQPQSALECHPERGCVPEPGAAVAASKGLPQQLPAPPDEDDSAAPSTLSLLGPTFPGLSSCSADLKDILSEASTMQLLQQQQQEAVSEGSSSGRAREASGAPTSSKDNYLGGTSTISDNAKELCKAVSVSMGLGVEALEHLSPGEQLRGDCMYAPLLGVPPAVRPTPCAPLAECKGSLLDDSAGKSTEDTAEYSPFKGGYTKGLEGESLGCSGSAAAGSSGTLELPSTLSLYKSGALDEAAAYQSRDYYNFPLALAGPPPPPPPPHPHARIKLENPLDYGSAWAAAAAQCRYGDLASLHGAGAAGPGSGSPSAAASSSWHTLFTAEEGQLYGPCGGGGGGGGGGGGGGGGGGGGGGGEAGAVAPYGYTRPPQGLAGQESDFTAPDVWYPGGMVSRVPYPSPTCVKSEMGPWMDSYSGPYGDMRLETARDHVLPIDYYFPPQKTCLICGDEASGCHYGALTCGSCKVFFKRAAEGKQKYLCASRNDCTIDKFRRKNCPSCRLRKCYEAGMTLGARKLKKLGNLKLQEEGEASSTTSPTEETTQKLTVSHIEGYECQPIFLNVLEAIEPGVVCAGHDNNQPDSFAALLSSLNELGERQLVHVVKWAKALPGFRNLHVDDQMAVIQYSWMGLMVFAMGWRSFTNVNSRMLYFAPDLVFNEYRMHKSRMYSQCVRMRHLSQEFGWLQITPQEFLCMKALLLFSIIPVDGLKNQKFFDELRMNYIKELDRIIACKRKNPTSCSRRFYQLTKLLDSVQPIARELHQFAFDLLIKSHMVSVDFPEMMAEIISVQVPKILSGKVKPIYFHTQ
T1 sequence (Q96SW2 whole entry partner): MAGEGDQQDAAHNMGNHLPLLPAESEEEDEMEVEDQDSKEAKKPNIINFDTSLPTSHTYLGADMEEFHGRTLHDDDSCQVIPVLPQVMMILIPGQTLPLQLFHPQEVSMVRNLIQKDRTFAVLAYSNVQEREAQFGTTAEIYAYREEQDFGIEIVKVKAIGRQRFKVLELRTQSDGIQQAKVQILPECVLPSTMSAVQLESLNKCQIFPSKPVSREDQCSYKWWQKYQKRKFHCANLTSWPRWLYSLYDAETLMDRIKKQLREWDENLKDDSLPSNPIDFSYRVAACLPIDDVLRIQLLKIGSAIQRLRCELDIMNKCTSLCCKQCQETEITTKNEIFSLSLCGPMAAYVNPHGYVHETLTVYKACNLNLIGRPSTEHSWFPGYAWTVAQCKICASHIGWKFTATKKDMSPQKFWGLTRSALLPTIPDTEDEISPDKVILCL

**Q.** With `N#Cc1ncc(N2CCC(F)(C(=O)Nc3ccc(N4CCC(CCN5CCN(c6ccc7c(c6)C(=O)N(C6CCC(=O)NC6=O)C7=O)CC5)CC4)cn3)CC2)cc1C(F)(F)F` (stereo not drawn) [Example 90, 1-(6-cyano-5-(trifluoromethyl)pyridin-3-yl)-N-(5-(4-(2-(4-(2-(2,6-dioxopiperidin-3-yl)-1,3-dioxoisoindolin-5-yl)piperazin-1-yl)ethyl)piperidin-1-yl)pyridin-2-yl)-4-fluoropiperidine-4-carboxamide] as the compound, how does the inhibition at 0.01 µM read?
**A.** Its inhibition at 0.01 µM is 23%.

**Q.** And the inhibition at 0.1 µM?
**A.** Its inhibition at 0.1 µM is 57%.

**Q.** And the inhibition at 1 µM?
**A.** The inhibition at 1 µM was 82%.

**Q.** For `N#Cc1ccc(N2CCC(C(=O)Nc3ccc(N4CCC(CCN5CCN(C6CCN(c7ccc8c(c7)C(=O)N(C7CCC(=O)NC7=O)C8=O)CC6)CC5)CC4)cn3)CC2)cc1C(F)(F)F` (stereo not drawn) [Example 91, 1-(4-cyano-3-(trifluoromethyl)phenyl)-N-(5-(4-(2-(4-(1-(2-(2,6-dioxopiperidin-3-yl)-1,3-dioxoisoindolin-5-yl)piperidin-4-yl)piperazin-1-yl)ethyl)piperidin-1-yl)pyridin-2-yl)piperidine-4-carboxamide], which inhibition at 0.01 µM is on record?
**A.** The inhibition at 0.01 µM was 48%.

**Q.** And the inhibition at 0.1 µM?
**A.** The inhibition at 0.1 µM was 96%.

**Q.** What about the inhibition at 1 µM of the same compound?
**A.** Its inhibition at 1 µM is 98%.

**Q.** What does the source list for `N#Cc1ccc(N2CCC(F)(C(=O)Nc3ccc(N4CCC(CN5CC6(CCN(c7ccc8c(c7)C(=O)N(C7CCC(=O)NC7=O)C8=O)CC6)C5)CC4)cn3)CC2)cc1C(F)(F)F` (stereo not drawn) [Example 54, 1-(4-cyano-3-(trifluoromethyl)phenyl)-N-(5-(4-((7-(2-(2,6-dioxopiperidin-3-yl)-1,3-dioxoisoindolin-5-yl)-2,7-diazaspiro[3.5]nonan-2-yl)methyl)piperidin-1-yl)pyridin-2-yl)-4-fluoropiperidine-4-carboxamide]?
**A.** inhibition at 0.01 µM: 60%; inhibition at 0.1 µM: 95%; inhibition at 1 µM: 98%

**Q.** Which inhibition at 0.01 µM does the source give for `N#Cc1ccc(N2CCC(C(=O)Nc3ccc(N4CCC(CCN5CCC6(CC5)CN(c5ccc7c(n5)CN(C5CCC(=O)NC5=O)C7=O)C6)CC4)cn3)CC2)cc1C(F)(F)F` (stereo not drawn) [Example 96, 1-(4-cyano-3-(trifluoromethyl)phenyl)-N-(5-(4-(2-(2-(6-(2,6-dioxopiperidin-3-yl)-5-oxo-6,7-dihydro-5H-pyrrolo[3,4-b]pyridin-2-yl)-2,7-diazaspiro[3.5]nonan-7-yl)ethyl)piperidin-1-yl)pyridin-2-yl)piperidine-4-carboxamide] here?
**A.** The inhibition at 0.01 µM was 71%.

**Q.** And the inhibition at 0.1 µM?
**A.** The inhibition at 0.1 µM was 93%.

**Q.** What about the inhibition at 1 µM of the same compound?
**A.** The inhibition at 1 µM was 91%.

**Q.** `N#Cc1ccc(N2CCC(C(=O)Nc3ccc(N4CCC(CCN5CCN(c6ccc7c(c6)C(=O)N(C6CCC(=O)NC6=O)C7=O)CC5)CC4)cn3)CC2)cc1Cl` (stereo not drawn) [Example 87, 1-(3-chloro-4-cyanophenyl)-N-(5-(4-(2-(4-(2-(2,6-dioxopiperidin-3-yl)-1,3-dioxoisoindolin-5-yl)piperazin-1-yl)ethyl)piperidin-1-yl)pyridin-2-yl)piperidine-4-carboxamide] was tested. Which inhibition at 0.01 µM did it give?
**A.** Its inhibition at 0.01 µM is 30%.

**Q.** And the inhibition at 0.1 µM?
**A.** The inhibition at 0.1 µM was 88%.

**Q.** What about the inhibition at 1 µM of the same compound?
**A.** Its inhibition at 1 µM is 90%.

**Q.** Which inhibition at 0.01 µM does the source give for `N#Cc1ccc(N2CCN(C(=O)Nc3ccc(N4CCC(CN5CC6(CCN(c7ccc8c(c7)C(=O)N(C7CCC(=O)NC7=O)C8=O)CC6)C5)CC4)nc3)CC2)cc1C(F)(F)F` (stereo not drawn) [Example 103, 4-(4-cyano-3-(trifluoromethyl)phenyl)-N-(6-(4-((7-(2-(2,6-dioxopiperidin-3-yl)-1,3-dioxoisoindolin-5-yl)-2,7-diazaspiro[3.5]nonan-2-yl)methyl)piperidin-1-yl)pyridin-3-yl)piperazine-1-carboxamide] here?
**A.** Its inhibition at 0.01 µM is -9%.

**Q.** What about the inhibition at 0.1 µM of the same compound?
**A.** Its inhibition at 0.1 µM is 15%.

**Q.** What about the inhibition at 1 µM of the same compound?
**A.** The inhibition at 1 µM was 44%.

**Q.** What about the inhibition at 10 µM (10 μM compound) of the same compound?
**A.** Its inhibition at 10 µM is 58%.

**Q.** Which results are given for `N#Cc1ccc(N2CCC(C(=O)Nc3ccc(N4CCC(CCN5CCN(c6ccc7c(n6)CN(C6CCC(=O)NC6=O)C7=O)CC5)CC4)cn3)CC2)cc1C(F)(F)F` (stereo not drawn) [Example 92, 1-(4-cyano-3-(trifluoromethyl)phenyl)-N-(5-(4-(2-(4-(6-(2,6-dioxopiperidin-3-yl)-5-oxo-6,7-dihydro-5H-pyrrolo[3,4-b]pyridin-2-yl)piperazin-1-yl)ethyl)piperidin-1-yl)pyridin-2-yl)piperidine-4-carboxamide]?
**A.** inhibition at 0.01 µM: 53%; inhibition at 0.1 µM: 67%; inhibition at 1 µM: 96%

**Q.** Which inhibition at 0.01 µM does the source give for `N#Cc1ccc(N2CCC(C(=O)Nc3ccc(N4CCC(CN5CCN(Cc6ccc7c(c6)C(=O)N(C6CCC(=O)NC6=O)C7=O)CC5)CC4)cn3)CC2)cc1C(F)(F)F` (stereo not drawn) [Example 4, 1-(4-cyano-3-(trifluoromethyl)phenyl)-N-(5-(4-((4-((2-(2,6-dioxopiperidin-3-yl)-1,3-dioxoisoindolin-5-yl)methyl)piperazin-1-yl)methyl)piperidin-1-yl)pyridin-2-yl)piperidine-4-carboxamide] here?
**A.** The inhibition at 0.01 µM was 24%.

**Q.** And the inhibition at 0.1 µM?
**A.** The inhibition at 0.1 µM was 86%.

**Q.** And the inhibition at 1 µM?
**A.** Its inhibition at 1 µM is 96%.

**Q.** For `N#Cc1ccc(N2CCC(C(=O)Nc3ccc(N4CC(CN5CCN(C6CN(c7ccc8c(c7)C(=O)N(C7CCC(=O)NC7=O)C8=O)C6)CC5)C4)cn3)CC2)cc1C(F)(F)F` (stereo not drawn) [Example 36, 1-(4-cyano-3-(trifluoromethyl)phenyl)-N-(5-(3-((4-(1-(2-(2,6-dioxopiperidin-3-yl)-1,3-dioxoisoindolin-5-yl)azetidin-3-yl)piperazin-1-yl)methyl)azetidin-1-yl)pyridin-2-yl)piperidine-4-carboxamide], which inhibition at 0.01 µM is on record?
**A.** The inhibition at 0.01 µM was 66%.

**Q.** And the inhibition at 0.1 µM?
**A.** Its inhibition at 0.1 µM is 94%.

**Q.** What about the inhibition at 1 µM of the same compound?
**A.** Its inhibition at 1 µM is 94%.

**Q.** What does the source list for `N#Cc1ccc(N2CCC(C(=O)Nc3ccc(N4CC(CN5CCC(CN6CCN(c7ccc8c(c7)C(=O)N(C7CCC(=O)NC7=O)C8=O)CC6)CC5)C4)cn3)CC2)cc1C(F)(F)F` (stereo not drawn) [Example 190, 1-(4-cyano-3-(trifluoromethyl)phenyl)-N-(5-(3-((4-((4-(2-(2,6-dioxopiperidin-3-yl)-1,3-dioxoisoindolin-5-yl)piperazin-1-yl)methyl)piperidin-1-yl)methyl)azetidin-1-yl)pyridin-2-yl)piperidine-4-carboxamide]?
**A.** inhibition at 0.01 µM: -11%; inhibition at 0.1 µM: 61%

**Q.** What does the source list for `N#Cc1ccc(N2CCC(C(=O)Nc3ccc(N4CCC(CN5CC[C@H](CN6CCN(c7ccc8c(c7)C(=O)N(C7CCC(=O)NC7=O)C8=O)CC6)C5)CC4)cn3)CC2)cc1C(F)(F)F` (stereo partly drawn) [Example 82, 1-(4-cyano-3-(trifluoromethyl)phenyl)-N-(5-(4-(((3S)-3-((4-(2-(2,6-dioxopiperidin-3-yl)-1,3-dioxoisoindolin-5-yl)piperazin-1-yl)methyl)pyrrolidin-1-yl)methyl)piperidin-1-yl)pyridin-2-yl)piperidine-4-carboxamide]?
**A.** inhibition at 0.01 µM: 33%; inhibition at 0.1 µM: 87%; inhibition at 1 µM: 95%

**Q.** With `N#Cc1ccc(N2CCC(C(=O)Nc3ccc(N4CCC(CN5CCN(CC6CCN(c7ccc8c(n7)CN(C7CCC(=O)NC7=O)C8=O)CC6)CC5)CC4)cn3)CC2)cc1C(F)(F)F` (stereo not drawn) [Example 34, 1-(4-cyano-3-(trifluoromethyl)phenyl)-N-(5-(4-((4-((1-(6-(2,6-dioxopiperidin-3-yl)-5-oxo-6,7-dihydro-5H-pyrrolo[3,4-b]pyridin-2-yl)piperidin-4-yl)methyl)piperazin-1-yl)methyl)piperidin-1-yl)pyridin-2-yl)piperidine-4-carboxamide] as the compound, how does the inhibition at 0.01 µM read?
**A.** The inhibition at 0.01 µM was 88%.

**Q.** What about the inhibition at 0.1 µM of the same compound?
**A.** Its inhibition at 0.1 µM is 99%.

**Q.** And the inhibition at 1 µM?
**A.** Its inhibition at 1 µM is 96%.
